This passage reports IC50 results from patent publication US10689705B2, “FGFR3 fusion gene and pharmaceutical drug targeting same” (Chugai Seiyaku Kabushiki Kaisha, priority 2012, dated 2020).

A value given as a limit tells only on which side of the number the result lay.
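Note: proliferation measured with WST-8, IC50 derived by least-squares fitting.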

The assay has as its system colon cancer-derived cell line HCT116. Nature of the assay: cells. Conditions: Homo sapiens, HCT-116, 96 h, read-out: HCT116 (CRC) IC50.
For `CSc1ccc2cc(C(=O)c3cnn(-c4ccc5[nH]c(C)nc5c4)c3N)[nH]c2c1` [Compound 30], the IC50 (commonly the midpoint of a concentration-inhibition curve) stood at 13 µM.
The value for `Cc1nc2cc(-n3ncc(C(=O)c4cc5cc(C6CCN(C(C)C)CC6)c(C(F)(F)F)cc5[nH]4)c3N)ccc2[nH]1` [Compound 31] was 2 µM.
Consider `Cc1nc2ccc(-n3ncc(C(=O)c4cc5cc(C6=CCNCC6)ccc5[nH]4)c3N)cc2[nH]1` [Compound 32], for which the IC50 was found to be 8.7 µM.
`Cc1nc2cc(-n3ncc(C(=O)c4cc5cc(C(C)(C)C)ccc5[nH]4)c3N)ccc2[nH]1` [Compound 33]: the IC50 stood at 4.4 µM.
Then `Cc1nc2cc(-n3ncc(C(=O)c4cc5ccc(-c6cncc(S(C)(=O)=O)c6)cc5[nH]4)c3N)ccc2[nH]1` [Compound 35], with 7.8 µM; and `Cc1nc2ccc(-n3ncc(C(=O)c4[nH]c5ccccc5c4F)c3N)cc2[nH]1` [Compound 36], with 4.8 µM; and `COc1cc(OC)c2cc(C(=O)c3cnn(-c4ccc5[nH]c(C)nc5c4)c3N)[nH]c2c1` [Compound 37], with 8.9 µM.
As to `CCCCOc1ccc2[nH]c(C(=O)c3cnn(-c4ccc5[nH]c(C)nc5c4)c3N)cc2c1` [Compound 38], the IC50 was determined as 6.1 µM.
In the case of `Cc1nc2cc(-n3ncc(C(=O)c4cc5cc(OCC6CC6)ccc5[nH]4)c3N)ccc2[nH]1` [Compound 39], the IC50 was determined as 11 µM.
In the case of `Cc1nc2cc(-n3ncc(C(=O)c4cc5ncccc5[nH]4)c3N)ccc2[nH]1` [Compound 40], the IC50 was determined as 19 µM.
Consider `Cc1ccc(-c2ccc3cc(C(=O)c4cnn(-c5ccc6[nH]c(C)nc6c5)c4N)[nH]c3c2)cn1` [Compound 41], for which the half-maximal inhibitory concentration (IC50) was over 20 µM.
The value for `Cc1nc2cc(-n3ncc(C(=O)c4cc5c(C)cccc5[nH]4)c3N)ccc2[nH]1` [Compound 42] was 15 µM; that for `COc1ncccc1-c1ccc2cc(C(=O)c3cnn(-c4ccc5[nH]c(C)nc5c4)c3N)[nH]c2c1` [Compound 43] was over 50 µM.
Then `Cc1nc2cc(-n3ncc(C(=O)c4cc5ccc(Br)cc5[nH]4)c3N)ccc2[nH]1` [Compound 44], with 10 µM.
As for `Cc1nc2cc(-n3ncc(C(=O)c4cc5ccc(OCCN6CCOCC6)cc5[nH]4)c3N)ccc2[nH]1` [Compound 45], the IC50 stood at 9.4 µM.
For `Cc1nc2cc(-n3ncc(C(=O)c4cc5cc(CN6CCN(S(C)(=O)=O)CC6)ccc5[nH]4)c3N)ccc2[nH]1` [Compound 47], the IC50 is 14 µM.
As for `Cc1nc2cc(-n3ncc(C(=O)c4cc5ccc(O)cc5[nH]4)c3N)ccc2[nH]1` [Compound 48], the IC50 came to 37 µM.
As for `Cc1nc2ccc(-n3ncc(C(=O)c4cc5ccc(Cl)cc5[nH]4)c3N)cc2[nH]1` [Compound 50], the IC50 is 34 µM.
On to `COc1ccccc1-c1ccc2cc(C(=O)c3cnn(-c4ccc5[nH]c(C)nc5c4)c3N)[nH]c2c1` [Compound 51], for which the IC50 amounted to 5.1 µM.
As for `Cc1nc2cc(-n3ncc(C(=O)c4cc5ccc(-c6ccc(C(F)(F)F)cn6)cc5[nH]4)c3N)ccc2[nH]1` [Compound 52], the half-maximal inhibitory concentration (IC50) came out at 10 µM.
Take `Cc1nc2cc(-n3ncc(C(=O)c4cc5cc6c(cc5[nH]4)OC(F)(F)O6)c3N)ccc2[nH]1` [Compound 53]: the half-maximal inhibitory concentration (IC50) is over 20 µM.
As for `Cc1nc2cc(-n3ncc(C(=O)c4cc5cc(C(=O)N6CCC(N7CCCCC7)CC6)ccc5[nH]4)c3N)ccc2[nH]1` [Compound 54], the IC50 is over 20 µM.
On to `Cc1nc2ccc(-n3ncc(C(=O)c4cc5cc(C6CCNCC6)c(F)cc5[nH]4)c3N)cc2[nH]1` [Compound 55], for which the IC50 was determined as 16 µM.
The value for `Cc1nc2cc(-n3ncc(C(=O)c4cc5c(OC(C)C)cccc5[nH]4)c3N)ccc2[nH]1` [Compound 56] was 19 µM; that for `Cc1nc2cc(-n3ncc(C(=O)c4cc5cc(C(=O)N6CCN(CC(F)(F)F)CC6)ccc5[nH]4)c3N)ccc2[nH]1` [Compound 57] was over 20 µM.
The value for `COc1cc2[nH]c(C(=O)c3cnn(-c4ccc5[nH]c(C)nc5c4)c3N)cc2cc1Cl` [Compound 58] was 12 µM.
